Source: patent US12201622B2, “Continuous delivery of lenalidomide and other immunomodulatory agents” (Starton Therapeutics, Inc., priority 2019, dated 2025)
Entries after “also recorded” stand apart in the source; their conditions may differ.

Experiments:
[1] = test system: H929 multiple myeloma tumor cells; assay: Efficacy of lenalidomide continuous infusion in H929 myeloma xenograft model; format: in vivo, CB.17 SCID mouse
Source text: In this study, a composition comprising lenalidomide was continuously delivered via subcutaneous infusion or was delivered once a day via intraperitoneal injection to SCID mice wherein the mice were implanted with a H929 multiple myeloma xenograft.
(§1) Six groups of female CB.17 SCID mouse, each containing ten mice, were subcutaneously injected with 1×10^7 H929 multiple myeloma tumor cells in 50% Matrigel. After the tumor reached an average size of 100-150 mm^3, an iPrecio pump was surgically implanted into each of the mice. Dosing began twenty-four hours post pump implantation. Group 1, the control group, was treated with vehicle via intraperitoneal injection once a day. Group 2 was treated with lenalidomide via intraperitoneal injection once a day. Each of Groups 3-6 was treated lenalidomide via continuous subcutaneous infusion at different hourly rate. The dosing lasted 14 days followed by one day off the treatment and lasted for another 14 days. The iPrecio pump was replaced after 14 days. The formulation used in Groups 2-6 contains 20% PEG400 in water as the carrier. Blood was drawn at predetermined time points and analyzed
The table below lists the daily dose and schedule for each of the six groups.

[2] = Body weight and hematologic toxicity (WBC, PLT, ANC) in xenografted SCID mice; format: in vivo, CB.17 SCID mouse; settings: for ANC: normal range 0.77-2.5; for WBC: normal range 1.4-5.4; for PLT: normal range 733-1441
Experimental: as §1

[3] = Blood levels of lenalidomide in SCID mice after daily intraperitoneal dose; format: in vivo, SCID mouse; settings: Group 2: 500 mcg ip once a day
Experimental: In the study described in Example 1, the SCID mice in Group 2 were given the standard of care treatment which is a daily intraperitoneal dose of 25 mg/kg (500 mcg for 20 gm mouse) administered once a day. […] For example, if the continuous blood level is greater than that observed at 16 hours but less than that observed at 10 hours in daily intraperitoneal dose of 500 mcg administered once a day, it is effective and non-toxic. The maintenance of continuous dose specific blood levels in terms of their time range are predicted to be safe and effective and result in activity in humans.
as §1
The multiple myeloma study in SCID mice provides pharmacokinetically modeled data to support three treatment paradigms. The standard of care treatment in the mouse model study is a daily intraperitoneal dose of 500 mcg administered once a day (see Group 2). […] The range of tolerable and effective blood levels ranged from the blood level at 10 hours to the blood level at 16 hours. Continuous blood levels of greater than those observed at 8 hours or 0.29 mcg/mL and lower than those observed at 18 hours or 0.013 mcg/mL were either toxic or ineffective, respectfully. The maintenance of continuous dose specific blood levels in terms of their time range are predicted to be safe and effective and result in activity in humans.

[4] = Group 3: 144 μg/day (6 μg/hr) sc continuous, day 8
[5] = Group 4: 48 μg/day (2 μg/hr) sc continuous, day 8
[6] = Group 5: 24 μg/day (1 μg/hr) sc continuous, day 8
[7] = Group 6: 12 μg/day (.5 μg/hr) sc continuous, day 8

Question: What does the source list for `Nc1cccc2c1CN(C1CCC(=O)NC1=O)C2=O` (stereo not shown) [lenalidomide, 3-(4-amino-1-3-dihydro-1-oxo-2H-isoindol-2yl)-2,6-piperidinedione]?
Answer: survival (Kaplan-Meier) ([1]; Group 2: 500 μg/day ip qd): no mouse survived at day 52; tumor volume ([1]; Group 2: 25 mg/kg (500 μg/day) ip qd x 14/1 day off/qd x 14, 25 mg/kg): failed to inhibit the growth of the tumor volume; also recorded: slowed progression but did not inhibit the growth of the tumor size; tumor volume ([1]; Group 3: 144 μg/day (6 μg/hr) continuous sc infusion, 14 days/1 day off/14 days): the only group having tumor volume reduced during the treatment schedule; also recorded: effectively reduced the tumor size in all animals treated at 6 mcg/hr; survival (Kaplan-Meier) ([1]; Group 3: 144 μg/day continuous sc infusion, day 1 to day 95): the only group having mice survived for 95 days; ANC ([2]; Group 2: 25 mg/kg ip qd, day 8): 1.2 10^3 cells/μL; WBC ([2]; Group 2: 25 mg/kg ip qd, day 8): 1.8 10^3 cells/μL; PLT ([2]; Group 2: 25 mg/kg ip qd, day 8): 850 10^3 cells/μL; ANC [2, 4]: 2.4 10^3 cells/μL; WBC [2, 4]: 2.8 10^3 cells/μL; PLT [2, 4]: 1360 10^3 cells/μL; ANC [2, 5]: 1.9 10^3 cells/μL; WBC [2, 5]: 2.4 10^3 cells/μL; PLT [2, 5]: 1345 10^3 cells/μL; ANC [2, 6]: 2.8 10^3 cells/μL; WBC [2, 6]: 3.3 10^3 cells/μL; PLT [2, 6]: 1410 10^3 cells/μL; ANC [2, 7]: 2.5 10^3 cells/μL; WBC [2, 7]: 3.2 10^3 cells/μL; PLT [2, 7]: 1535 10^3 cells/μL; body weight ([2]; continuous sc infusion (Group 3, 144 μg/day)): insignificant weight loss; also recorded: did not result in substantial loss of body weight; hematologic toxicity ([2]; continuous sc infusion, Groups 3-6 (12-144 μg/day), day 8): no substantial hematologic toxicity; also recorded: did not result in substantial loss of body weight or hematologic toxicity; blood level trough [3]: 2 ng/mL; Cmax ([3]; female, CB.17 SCID, mouse, blood, 500 ug, at 0.08 hours, read-out: blood level Cmax): 2900 ng/mL; concentration at 8 h ([3]; female, CB.17 SCID, mouse, blood, 25 mg/kg, read-out: blood level at 8 hours): 290 ng/mL; concentration at 18 h ([3]; female, CB.17 SCID, mouse, blood, 25 mg/kg, read-out: blood level at 18 hours): 13 ng/mL
